Read-outs that look alike come from different tables or passages of the source.
Assays:
Type in all cases: cell-based
human PBM cells = assay: Cytotoxicity assay in PBM cells
Protocol: (§1) The toxicity of the compounds was assessed in Vero, human PBM, CEM (human lymphoblastoid), MT-2, and HepG2 cells, as described previously (Schinazi […]., Cannon D. L., Xie […]., Smith […]. […] Cycloheximide was included as positive cytotoxic control, and untreated cells exposed to solvent were included as negative controls. The cytotoxicity IC50 was obtained from the concentration-response curve using the median effective method described previously (Chou […]. […] Belen'kii M. S. & Schinazi R. F.

HepG2 cells = assay: Cytotoxicity assay in HepG2 cells
Protocol: as §1

[1] = system: CEM (human lymphoblastoid) cells; assay: Cytotoxicity assay in CEM cells
Protocol: as §1

Vero cells = assay: Cytotoxicity assay in Vero cells
Protocol: as §1

MT-2 cells = assay: Cytotoxicity assay in MT-2 cells
Protocol: as §1

HIV-1RF = assay: Anti-HIV (in MT-2 cells) assay, viral RNA accumulation; conditions: EC90, MT-2 cells, read-out: Anti-HIV-1 activity in different cells (EC90, μM) MT-2
Protocol: In a second antiviral testing system, the potency of the compounds was determined by measurement of viral RNA accumulation in HIV-1RF infected MT-2 cells (Bacheler L T, Paul M, Otto M J, Jadhav P K, Stone B A & Miller J A (1994) An assay for HIV RNIn infected cell lysates, and its use for rapid evaluation of antiviral efficacy. Antivir. Chem. Chemother. 5:111–121). The virus titer was established to determine the dilution producing 15 to 30 ng/RNA per well of HIV RNIn 3 days of infection. HIV-1 RNA was quantified using biotinylated capture and alkaline phosphatase-derivatized reporter oligonucleotides as described previously (Charvet A-S, Camplo M, Faury P, Graciet J C, Mourier N, Chermann J C & Kraus J L (1994) Inhibition of human immunodeficiency virus type 1 replication by phosphonoformate- and phosphonoacetate-2′,3′-dideoxy-3′-thiacytidine conjugates. J. Med. Chem. 37:2216–2223). In a third system, the effect of analogs on the replication of HIV-1NL4-3 was determined via the InterCompany Consortium consensus p24 assay as previously described (Jadhav P K & MacKay M F (1997) Cyclic urea amide: HIV-1 protease inhibitors with low nanomolar potency against both wild types and protease inhibitor resistant mutants of HIV. J. Med. Chem. 40:181–190). Recombinant viruses were recovered by transfecting the appropriate NL4-3 plasmid by lipofection. Virus stocks recovered 7 to 10 days post-transfection were titered on MT-4 cells to determine if the dilution produced 1,000 to 3,000 ng p24 in 4 days. This dilution was then used in drug susceptibility assays, where drug was added 24 h post infection of cells, and p24 quantified by ELISA 3 days later.

HIV-1LAl = assay: Anti-HIV (in PBM cells) assay, reverse transcriptase readout
Protocol: Anti-HIV-1 activity of the compounds was determined in human peripheral blood mononuclear (PBM) cells as described previously (Schinazi […]., Cannon D., Mathis R., Lloyd R. M. Jr., […]., St. Clair M., Wilson J., Furman P. A., Painter G., Choi […]. Antimicrob. Agents Chemother. 1992, 36, 2423; Schinazi […]., Cannon D., Xie […]., Smith G., Hahn E. Antimicrob. Agents Chemother. 1990, 34, 1061). Stock solutions ([…]) of the compounds were prepared in sterile DMSO and then diluted to the desired concentration in growth medium. […] Virus obtained from the cell supernatant was quantified on day 6 after infection by a reverse transcriptase assay using (rA)n.(dT)12.18 as template-primer. […] AZT was included as positive control. The antiviral EC50 and EC90 were obtained from the concentration-response curve using the median effective method described previously (Chou […]. Enzyme Regul. 1984, 22, 27-55; Belen'kii M. S. & Schinazi R. F. Antiviral Res. 1994, 25, 1-11).

[2] = Table 2, read-out: Cytotoxicity in different cells (IC50, μM) PBM
[3] = Table 2, read-out: Cytotoxicity in different cells (IC50, μM) HepG2
[4] = Table 2, read-out: Cytotoxicity in different cells (IC50, μM) CEM
[5] = Table 2, read-out: Cytotoxicity in different cells (IC50, μM) Vero
[6] = Table 2, read-out: Cytotoxicity in different cells (IC50, μM) MT-2
[7] = Table 2, read-out: Anti-HIV-1 activity in different cells (EC90, μM) PBM
[8] = Table 1, read-out: Cytotoxicity in different cells (IC50, μM) PBM
[9] = Table 1, read-out: Cytotoxicity in different cells (IC50, μM) HepG2
[10] = Table 1, read-out: Cytotoxicity in different cells (IC50, μM) CEM
[11] = Table 1, read-out: Cytotoxicity in different cells (IC50, μM) Vero
[12] = Table 1, read-out: Cytotoxicity in different cells (IC50, μM) MT-2
[13] = Table 1, read-out: Anti-HIV-1 activity in different cells (EC90, μM) PBM

O=C(Nc1nc(=O)n([C@H]2C=C[C@@H](CO)O2)cc1F)c1ccccc1[N+](=O)[O-] [Compound 47, β-D-2′,3′-Didehydro-2′,3′-dideoxy-5-fluoro-N^4-(2-nitrobenzoyl)cytidine]
IC50 (human PBM cells; [2]): 80 µM
IC50 (HepG2 cells; [3]): > 100 µM
IC50 [1, 4]: > 100 µM
IC50 (Vero cells; [5]): > 100 µM
IC50 (MT-2 cells; [6]): > 50 µM
EC90 (HIV-1RF; Table 2): > 50 µM
EC90 (HIV-1LAl; [7]): 39.9 µM

CCCC(=O)Nc1nc(=O)n([C@H]2CC[C@@H](CO)O2)cc1F [Compound 34, β-D-N^4-Butyryl-2′,3′-dideoxy-5-fluorocytidine]
IC50 (human PBM cells; [8]): 17.1 µM
IC50 (HepG2 cells; [9]): 7.6 µM
IC50 [1, 10]: 31.6 µM
IC50 (Vero cells; [11]): 5.8 µM
IC50 (MT-2 cells; [12]): 7.2 µM
EC90 (HIV-1RF; Table 1): 0.71 µM
EC90 (HIV-1LAl; [13]): 1.6 µM

COc1ccc(C(=O)Nc2nc(=O)n([C@H]3CC[C@@H](CO)O3)cc2F)cc1 [Compound 17, β-D-N^4-p-Anisoyl-2′,3′-dideoxy-5-fluorocytidine]
IC50 (human PBM cells; [8]): 69.2 µM
IC50 (HepG2 cells; [9]): 4.5 µM
IC50 [1, 10]: 31.6 µM
IC50 (Vero cells; [11]): 5.3 µM
IC50 (MT-2 cells; [12]): 16 µM
EC90 (HIV-1RF; Table 1): 6 µM
EC90 (HIV-1LAl; [13]): 8.31 µM

COc1ccccc1C(=O)Nc1nc(=O)n([C@H]2C=C[C@@H](CO)O2)cc1F [Compound 44, β-D-N^4-o-Anisoyl-2,3′-didehydro-2,3-dideoxy-5-fluorocytidine]
IC50 (human PBM cells; [2]): 13.1 µM
IC50 (HepG2 cells; [3]): 3.4 µM
IC50 [1, 4]: 3.9 µM
IC50 (Vero cells; [5]): 5.6 µM
IC50 (MT-2 cells; [6]): > 50 µM
EC90 (HIV-1RF; Table 2): > 50 µM
EC90 (HIV-1LAl; [7]): 14.6 µM

Cc1ccccc1C(=O)Nc1nc(=O)n([C@H]2CC[C@@H](CO)O2)cc1F [Compound 24, β-D-2′,3′-Dideoxy-5-fluoro-N^4-o-toluoylcytidine]
IC50 (human PBM cells; [8]): 20.6 µM
IC50 (HepG2 cells; [9]): > 100 µM
IC50 [1, 10]: 22.5 µM
IC50 (Vero cells; [11]): 39.6 µM
IC50 (MT-2 cells; [12]): > 50 µM
EC90 (HIV-1RF; Table 1): 6.8 µM
EC90 (HIV-1LAl; [13]): 1.2 µM

COc1cccc(C(=O)Nc2nc(=O)n([C@H]3C=C[C@@H](CO)O3)cc2F)c1 [Compound 43, β-D-N^4-m-Anisoyl-2′,3′-didehydro-2′,3′-dideoxy-5-fluorocytidine]
IC50 (human PBM cells; [2]): 18.5 µM
IC50 (HepG2 cells; [3]): > 100 µM
IC50 [1, 4]: 24.6 µM
IC50 (Vero cells; [5]): > 100 µM
IC50 (MT-2 cells; [6]): > 50 µM
EC90 (HIV-1RF; Table 2): 0.34 µM
EC90 (HIV-1LAl; [7]): 2.1 µM

O=C(Nc1nc(=O)n([C@H]2C=C[C@@H](CO)O2)cc1F)c1cccs1 [Compound 54, β-D-2′,3′-Didehydro-2′,3′-dideoxy-5-fluoro-N^4-(2-thiophenecarbonyl)cytidine]
IC50 (human PBM cells; [2]): 10.2 µM
IC50 (HepG2 cells; [3]): 2.3 µM
IC50 [1, 4]: 3.9 µM
IC50 (Vero cells; [5]): 4.8 µM
IC50 (MT-2 cells; [6]): > 50 µM
EC90 (HIV-1RF; Table 2): 1.5 µM
EC90 (HIV-1LAl; [7]): 1.6 µM

O=C(Nc1nc(=O)n([C@H]2CC[C@@H](CO)O2)cc1F)c1ccccc1 [Compound 21, β-D-N^4-Benzoyl-2′,3′-dideoxy-5-fluorocytidine]
IC50 (human PBM cells; [8]): 67 µM
IC50 (HepG2 cells; [9]): 15.3 µM
IC50 [1, 10]: 38.5 µM
IC50 (Vero cells; [11]): 5.8 µM
IC50 (MT-2 cells; [12]): 19 µM
EC90 (HIV-1RF; Table 1): 1.2 µM
EC90 (HIV-1LAl; [13]): 1.29 µM

— patent publication US7105527B2, “N4-acylcytosine nucleosides for treatment of viral infections” (priority 2001, dated 2006)
